Results from US20100255117A1, “METHODS AND COMPOSITIONS FOR THE TREATMENT OF CANCER” (The Johns Hopkins University, priority 2007, published 2010).

Key:
H460 cells = experiment: Clonogenic survival after ionizing radiation, H460; format: cell-based, human; conditions: H460-NRF2 shRNA cells
Experimental: (§1) Clonogenic assays: Exponentially growing cells were counted, diluted and seeded in triplicate at 1000 cells per culture dish (100 mm). Cells were incubated for 24 h in a humidified CO2 incubator at 37° C., exposed to high dose rate (0.68Gy/min) radiation using a Gamma cell 40 ^137Cs irradiator (Atomic Energy of Canada, Ltd). To assess clonogenic survival following radiation exposure, cell cultures were incubated in complete growth medium at 37° C. for 14 days and then stained with 50% methanol-crystal violet solution. Only colonies with more than 50 cells were counted, and the surviving fraction was calculated and compared to the control.

A549 cells [1] = experiment: Clonogenic survival after ionizing radiation, A549; format: cell-based, human; conditions: A549-NRF2 shRNA cells
Experimental: as §1

ROS = experiment: Measurement of ROS levels (c-H2DCFDA, flow cytometry); format: cell-based, human; conditions: NAC for 30 mins
Experimental: Measurement of ROS levels: Cells were incubated with 10 μM c-H2DCFDA (molecular probes, Invitrogen, CA) for 30 mins at 37° C. to assess the ROS mediated oxidation to the fluorescent compound c-H2DCF. Fluorescence of oxidized c-H2DCF was measured at an excitation wavelength of 480 nm and an emission wavelength of 525 nm using a FAC Scan flow cytometer (Becton Dickinson).

A549 cells [2] = experiment: A549 subcutaneous tumor xenograft, intratumoral siRNA with or without carboplatin/radiation; format: in vivo, athymic nude mice
Experimental: Tumor Xenografts and siRNA Treatment: We injected A549 cells (5×10^6) and H460 cells (2×10^6) subcutaneously into the hind leg of male athymic nude mice and measured the tumor dimensions by caliper once per week. The tumor volumes were calculated using the following formula: [length (mm)×width (mm)×width (mm)×0.52]. For in vivo delivery of siRNA into tumors, siRNA duplexes diluted in PBS were injected into the tumors using insulin syringes at a concentration of 10 μg of siRNA/50 mm^3 of tumor volume. Intraperitoneal injections of carboplatin were given at a dose of 40 mg/kg body weight. Both siRNA and carboplatin were administered twice weekly for 4 weeks. Upon termination, tumors were harvested and weighted. For radiation exposure, mice with subcutaneous tumors were exposed to high dose rate radiation (2 dose of 3Gy each) using a Gamma cell 40 ^137Cs irradiator (Atomic Energy of Canada, Ltd).
Statistical Analysis—Statistical comparisons were performed by Student's t-tests or Wilcoxon rank-sum test. A value of p<0.05 was considered statistically significant. Tumor weights and changes in tumor volume were summarized using descriptive statistics. Differences in tumor measures between treatment groups were examined using linear regression models with generalized estimating equations (GEE). The distributions of both tumor measurements were skewed, so log transformations were used.

A549-C8-luc cells = experiment: Orthotopic A549-C8-luc lung tumor model, inhaled siRNA with or without carboplatin; format: in vivo, SCID-Beige mice; conditions: carboplatin 30 mg/kg i.p. twice/week, 4 weeks
Experimental: Experimental Lung Metastasis: In experimental metastasis experiments, 2×10^6 A549-C8-luc cells were injected into SCID-Beige mice (Charles River, Mass.) intravenously. For delivery of siRNA into lung tumors, 100 μg of siRNA duplex diluted in PBS was aerosolized using a nebulizer. Mice were given three doses of siRNA (100 μg/dose) every week, for 4 weeks, using a nebulizer. Intraperitoneal injections of carboplatin were given at a dose of 30 mg/kg body weight twice/week. All experimental animal protocols were performed in accordance with guidelines approved by the animal care committee at the Johns Hopkins University Bloomberg School of Public Health.
In Vivo Imaging: For luminescent imaging, animals inoculated with A549-C8-luc cells, which express a luciferase reporter gene, were anesthetized and injected intraperitoneally with 250 ul of luminescent substrate (15 mg/ml stock) D-Luciferin Firefly (Xenogen Cat# XR-1001). The animals were then imaged and analyzed by using the Xenogen IVIS Optical Imaging Device in the Johns Hopkins Oncology Center.

SMILES | cell survival after radiation with NAC pretreatment (H460 cells) | cell survival after radiation with NAC pretreatment (A549 cells [1]) | reduction of ROS production / mean fluorescent intensity (ROS; A549-NRF2shRNA cells) | reduction of ROS production / mean fluorescent intensity (ROS; H460-NRF2shRNA cells) | ratio of differences in change in tumor volume, siRNA+carboplatin vs siRNA (A549 cells [2]; experiment 1) | ratio of tumor weights, siRNA vs siRNA+carboplatin treated tumors (A549 cells [2]; experiment 1, carboplatin 40 mg/kg i.p. twice weekly) | ratio of differences in change in tumor volume, siRNA+carboplatin vs siRNA+radiation (A549 cells [2]; experiment 1, not significant) | ratio of tumor weights, siRNA+carboplatin vs siRNA treated tumors (A549 cells [2]; second experiment) | ratio of lung weights, siRNA vs siRNA+carboplatin treated tumors (A549-C8-luc cells)
CC(=O)N[C@@H](CS)C(=O)O [NAC, N-acetyl cysteine] | significantly increased cell survival | significantly increased cell survival | 85% | 75% |  |  |  |  | 
N.N.O=C([O-])C1(C(=O)[O-])CCC1.[Pt+2] [carboplatin] |  |  |  |  | 0.45 | 2.13 | 0.77 | 0.55 | 1.73
